Measurements from patent publication US10030016B2 (Sunesis Pharmaceuticals, Inc., priority 2009, dated 2018).
Where two headings read alike, the source gives them in different places.

What was measured:
PDK1 = PDK1 (Homo sapiens (Human), UniProt O15530); test: PDK1 kinase assay (coupled PDK1/AKT/FAM-crosstide assay, IMAP fluorescence polarization); assay type: biochemical; settings: inhibition of phospo-PDK1 in vitro
Summary of the method: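 GST-tagged PDK1 (aa 51-359, 0.75 nM) was coupled to unphosphorylated GST-AKT2 140-467-PIFtide (10 nM) and 100 nM FAM-crosstide at 40 μM ATP, in Tris pH 7.2 buffer, for 30 min at 25 °C. Crosstide phosphorylation was read by IMAP fluorescence polarization (ΔmP) and fitted with a 4-parameter curve.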

[1] = system: phospho-akt (Thr308) in PC-3 cells; test: Inhibition of phospho-akt (Thr308) in PC-3 cells, MSD phospho-akt 308 ELISA kit; assay type: cell-based; settings: Homo sapiens, inhibition of P308 Akt in PC-3 cells, 2 hours, no serum, MSD, read-out: EC50
Summary of the method: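 Electrochemiluminescent MSD ELISA of Thr308-phosphorylated Akt after a 2 h serum-free compound exposure of PC-3 cells (15,000/well, plated overnight). Controls: DMSO (high), 5 μM wortmannin (low). Lysate binding overnight at 4 °C; detection antibody 1 h at room temperature.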

Chain of PDK1 (O15530 51-359): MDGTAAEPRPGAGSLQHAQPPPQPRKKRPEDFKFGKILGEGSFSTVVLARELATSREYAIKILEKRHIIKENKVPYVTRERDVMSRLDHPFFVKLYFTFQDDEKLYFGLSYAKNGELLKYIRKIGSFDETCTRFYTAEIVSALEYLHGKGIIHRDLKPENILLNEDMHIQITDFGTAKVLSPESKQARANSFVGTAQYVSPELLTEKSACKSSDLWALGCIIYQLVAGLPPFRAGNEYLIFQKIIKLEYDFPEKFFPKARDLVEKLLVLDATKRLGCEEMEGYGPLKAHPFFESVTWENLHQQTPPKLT

IC50 (PDK1) [µM] | EC50 [1] [µM] | EC50 ([1]; PC-3, 2 h) [µM] | SMILES
< 0.1 | 1 to 10 |  | CC(C)Oc1cc(CNc2ncccc2C(=O)NCc2ccc(F)c(F)c2)cc(-c2ccc3ncnc(N)c3c2)c1 [Example 5.6]
< 0.1 | 1 to 10 |  | Nc1ncnc2ccc(-c3cccc(CNc4ncccc4C(=O)NCc4ccc(F)c(F)c4)c3)cc12 [Example 6.1, 2-(3-(4-aminoquinazolin-6-yl)benzylamino)-N-(3,4-difluorobenzyl)nicotinamide]
< 0.1 | > 10 |  | O=C(NCc1ccc(F)c(F)c1)c1cccnc1NCc1cccc(-c2ccc3ncnc(NC4CC4)c3c2)c1 [Example 6.3, 2-(3-(4-(cyclopropylamino)quinazolin-6-yl)benzylamino)-N-(3,4-difluorobenzyl)-nicotinamide]
> 5 | > 10 |  | O=C(NCc1ccc(F)c(F)c1)c1cccnc1NCc1ccccc1-c1c[nH]c2ncccc12 [Example 6.4, N-(3,4-difluorobenzyl)-2-{[2-(1H-pyrrolo[2,3-b]pyridin-3-yl)benzyl]amino}-pyridine-3-carboxamide]
< 0.1 | < 1 |  | C[C@@H](c1ccc(F)c(F)c1)n1cnc2ccnc(NCc3ccc(-c4ccc5ncnc(N)c5c4)s3)c2c1=O [Example 7.10, 5-({[5-(4-aminoquinazolin-6-yl)thiophen-2-yl]methyl}amino)-3-[(1S)-1-(3,4-difluorophenyl)ethyl] pyrido[4,3-d]pyrimidin-4(3H)-one]
0.1 to 1 |  | < 1 | C[C@@H](c1ccc(F)c(F)c1)n1cnc2ccnc(NCc3ccc(-c4cc5c(N)ncnc5cn4)s3)c2c1=O [Example 7.11, 5-({[5-(4-aminopyrido [3,4-d]pyrimidin-6-yl)thiophen-2-yl]methyl}amino)-3-[(1S)-1-(3,4-difluorophenyl)ethyl] pyrido[4,3-d]pyrimidin-4(3H)-one]
0.1 to 1 | < 1 |  | C[C@H](NC(=O)c1cc(S(C)(=O)=O)cnc1NCc1ccc(-c2ccc3ncnc(N)c3c2)s1)c1ccc(F)cc1 [Example 7.22.2, 2-({[5-(4-aminoquinazolin-6-yl)thiophen-2-yl]methyl}amino)-N-[(1S)-1-(4-fluorophenyl)ethyl]-5-(methylsulfonyl)pyridine-3-carboxamide]
0.1 to 1 | < 1 |  | CCOC(=O)c1cnc(NCc2ccc(-c3ccc4ncnc(N)c4c3)s2)c(C(=O)NCc2ccc(F)c(F)c2)c1 [Example 7.23.2, Ethyl 6-({[5-(4-aminoquinazolin-6-yl)thiophen-2-yl]methyl}amino)-5-[(3,4-difluorobenzyl)carbamoyl]pyridine-3-carboxylate]
0.1 to 1 |  | 1 to 10 | CN(C)CCNC(=O)c1cnc(NCc2ccc(-c3ccc4ncnc(N)c4c3)s2)c(C(=O)NCc2ccc(F)c(F)c2)c1 [Example 7.24.2, 2-({[5-(4-aminoquinazolin-6-yl)thiophen-2-yl]methyl}amino)-N^3-(3,4-difluorobenzyl)-N^5-[2-(dimethylamino)ethyl] pyridine-3,5-dicarboxamide]
< 0.1 | < 1 |  | CNC(=O)c1cnc(NCc2ccc(-c3ccc4ncnc(N)c4c3)s2)c(C(=O)NCc2ccc(F)c(F)c2)c1 [Example 7.24.3, 2-({[5-(4-aminoquinazolin-6-yl)thiophen-2-yl]methyl}amino)-N^3-(3,4-difluorobenzyl)-N^5-methylpyridine-3,5-dicarboxamide]
0.1 to 1 | > 10 |  | CN(C)CCCNC(=O)c1cnc(NCc2ccc(-c3ccc4ncnc(N)c4c3)s2)c(C(=O)NCc2ccc(F)c(F)c2)c1 [Example 7.24.5, 2-({[5-(4-aminoquinazolin-6-yl)thiophen-2-yl]methyl}amino)-N^3-(3,4-difluorobenzyl)-N^5-[3-(dimethylamino)propyl] pyridine-3,5-dicarboxamide]
< 0.1 | 1 to 10 |  | Nc1ncnc2ccc(-c3ccc(CNc4ncc(C(=O)N5CCOCC5)cc4C(=O)NCc4ccc(F)c(F)c4)s3)cc12 [Example 7.24.6, 2-({[5-(4-aminoquinazolin-6-yl)thiophen-2-yl]methyl}amino)-N^3-(3,4-difluorobenzyl)-5-(morpholin-4-ylcarbonyl)pyridine-3-carboxamide]
> 5 | > 10 |  | CCOc1cnc(NCc2ccc(-c3ccc4ncnc(N)c4c3)s2)c(C(=O)NCc2ccc(F)c(F)c2)c1 [Example 8.1.3, 2-({[5-(4-aminoquinazolin-6-yl)thiophen-2-yl]methyl}amino)-N-(3,4-difluorobenzyl)-5-ethoxypyridine-3-carboxamide]
< 0.1 | 1 to 10 |  | CCC(=O)Nc1cnc(NCc2ccc(-c3ccc4ncnc(N)c4c3)s2)c(C(=O)NCc2ccc(F)c(F)c2)c1 [Example 8.5.2, 2-({[5-(4-aminoquinazolin-6-yl)thiophen-2-yl]methyl}amino)-N-(3,4-difluorobenzyl)-5-(propanoylamino)pyridine-3-carboxamide]
0.1 to 1 | 1 to 10 |  | CC(C)C(=O)Nc1cnc(NCc2ccc(-c3ccc4ncnc(N)c4c3)s2)c(C(=O)NCc2ccc(F)c(F)c2)c1 [Example 8.5.3, 2-({[5-(4-aminoquinazolin-6-yl)thiophen-2-yl]methyl}amino)-N-(3,4-difluorobenzyl)-5-[(2-methylpropanoyl)amino] pyridine-3-carboxamide]

More lines, now with the values behind:

SMILES | IC50 (PDK1) [µM] | EC50 [1] [µM] | EC50 ([1]; PC-3, 2 h) [µM]
CC(C)Oc1cc(CNc2ncccc2C(=O)NCc2ccc(F)c(F)c2)cc(-c2ccc3ncnc(NC4CC4)c3c2)c1 [Example 5.5, 2-(3-(4-(cyclopropylamino)quinazolin-6-yl)-5-isopropoxy-benzylamino)-N-(3,4-difluorobenzyl)nicotinamide] | < 0.1 | > 10 | 
CC(C)Oc1cc(CNc2ncccc2C(=O)NCc2ccc(F)c(F)c2)cc(-c2c[nH]c3ncccc23)c1 [Example 5.7, N-(3,4-difluorobenzyl)-2-(3-isopropoxy-5-(1H-pyrrolo[2,3-b]pyridin-3-yl)benzylamino)nicotinamide] | < 0.1 | 1 to 10 | 
CC(C)Oc1cc(CNc2ncccc2C(=O)NCc2ccc(F)c(F)c2)cc(-c2c[nH]c3ncncc23)c1 [Example 5.8, N-(3,4-difluorobenzyl)-2-{[3-(propan-2-yloxy)-5-(7H-pyrrolo[2,3-d]pyrimidin-5-yl)benzyl]amino}pyridine-3-carboxamide] | < 0.1 | 1 to 10 | 
O=C(NCc1ccc(F)c(F)c1)c1cccnc1NCc1cccc(-c2c[nH]c3ncncc23)c1 [Example 6.2, 2-(3-(7H-pyrrolo[2,3-d]pyrimidin-5-yl)benzylamino)-N-(3,4-difluorobenzyl)nicotinamide] | < 0.1 | 1 to 10 | 
C[C@H](NC(=O)c1cc(F)cnc1NCc1ccc(-c2ccc3ncnc(N)c3c2)s1)c1ccc(F)cc1 [Example 7.3.2, (S)-2-(((5-(4-aminoquinazolin-6-yl)thiophen-2-yl)methyl)amino)-5-fluoro-N-(1-(4-fluorophenyl)ethyl) nicotinamide] | < 0.1 | < 1 | 
C[C@@H](c1ccc(F)cc1)n1cnc2ccnc(NCc3ccc(-c4cc5c(N)ncnc5cn4)s3)c2c1=O [Example 7.12, 5-({[5-(4-aminopyrido [3,4-d]pyrimidin-6-yl)thiophen-2-yl]methyl}amino)-3-[(1S)-1-(4-fluorophenyl)ethyl] pyrido[4,3-d]pyrimidin-4(3H)-one] | > 5 | > 10 | 
C[C@H](NC(=O)c1cc(F)cnc1NCc1ccc(-c2ccc3ncnc(N)c3c2)s1)c1ccc(F)c(F)c1 [Example 7.13, 2-({[5-(4-aminoquinazolin-6-yl)thiophen-2-yl]methyl}amino)-N-[(1S)-1-(3,4-difluorophenyl)ethyl]-5-fluoropyridine-3-carboxamide] | 0.1 to 1 | < 1 | 
C[C@H](NC(=O)c1cc(F)cnc1NCc1ccc(-c2cc3c(N)ncnc3cn2)s1)c1ccc(F)c(F)c1 [Example 7.15, 2-({[5-(4-aminopyrido[3,4-d]pyrimidin-6-yl)thiophen-2-yl]methyl}amino)-N-[(1S)-1-(3,4-difluorophenyl)ethyl]-5-fluoropyridine-3-carboxamide] | 0.1 to 1 | 1 to 10 | 
C[C@H](NC(=O)c1cccnc1NCc1ccc(-c2cc3c(N)ncnc3cn2)s1)c1ccc(F)c(F)c1 [Example 7.16, 2-({[5-(4-aminopyrido[3,4-d]pyrimidin-6-yl)thiophen-2-yl]methyl}amino)-N-[(1S)-1-(3,4-difluorophenyl)ethyl] pyridine-3-carboxamide] | 0.1 to 1 | 1 to 10 | 
C[C@H](NC(=O)c1cc(I)cnc1NCc1ccc(-c2ccc3ncnc(N)c3c2)s1)c1ccc(F)cc1 [Example 7.21.2, 2-({[5-(4-aminoquinazolin-6-yl)thiophen-2-yl]methyl}amino)-N-[(1S)-1-(4-fluorophenyl)ethyl]-5-iodopyridine-3-carboxamide] | 0.1 to 1 | < 1 | 
CN(C)C(=O)c1cnc(NCc2ccc(-c3ccc4ncnc(N)c4c3)s2)c(C(=O)NCc2ccc(F)c(F)c2)c1 [Example 7.24.4, 2-({[5-(4-aminoquinazolin-6-yl)thiophen-2-yl]methyl}amino)-N^3-(3,4-difluorobenzyl)-N^5,N^5-dimethylpyridine-3,5-dicarboxamide] | < 0.1 | < 1 | 
COc1cnc(NCc2ccc(-c3ccc4ncnc(N)c4c3)s2)c(C(=O)NCc2ccc(F)c(F)c2)c1 [Example 8.1.2, 2-({[5-(4-aminoquinazolin-6-yl)thiophen-2-yl]methyl}amino)-N-(3,4-difluorobenzyl)-5-methoxypyridine-3-carboxamide] | < 0.1 | < 1 | 
